Test results: PubChem BioAssay (NCI)
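Five compound concentrations were applied to cells in 96-well plates for 48 hours; endpoints were derived by simple linear interpolation of the resulting dose-response curve. The concentration for 50% growth inhibition is given as GI50. TGI marks complete inhibition of growth.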

Assays:
Experiment in all cases: NCI tumour cell line growth inhibition, 48 h
786-0 renal = test system: 786-0 renal
A498 renal = test system: A498 renal
A549 NSCLC = test system: A549 NSCLC
ACHN renal = test system: ACHN renal
BT-549 breast = test system: BT-549 breast
CAKI-1 renal = test system: CAKI-1 renal
CCRF-CEM leukemia = test system: CCRF-CEM leukemia
COLO 205 colon = test system: COLO 205 colon
DU-145 prostate = test system: DU-145 prostate
EKVX NSCLC = test system: EKVX NSCLC
HCC-2998 colon = test system: HCC-2998 colon
HCT-116 colon = test system: HCT-116 colon
HCT-15 colon = test system: HCT-15 colon
HL-60(TB) leukemia = test system: HL-60(TB) leukemia
HOP-62 NSCLC = test system: HOP-62 NSCLC
HOP-92 NSCLC = test system: HOP-92 NSCLC
HS 578T breast = test system: HS 578T breast
HT29 colon = test system: HT29 colon
IGROV1 ovarian = test system: IGROV1 ovarian
K-562 leukemia = test system: K-562 leukemia
KM12 colon = test system: KM12 colon
LOX IMVI melanoma = test system: LOX IMVI melanoma
M14 melanoma = test system: M14 melanoma
MALME-3M melanoma = test system: MALME-3M melanoma
MCF7 breast = test system: MCF7 breast
MDA-MB-231 breast = test system: MDA-MB-231 breast
MDA-MB-435 = test system: MDA-MB-435
MOLT-4 leukemia = test system: MOLT-4 leukemia
NCI-H226 lung = test system: NCI-H226 lung
NCI-H23 lung = test system: NCI-H23 lung
NCI-H460 lung = test system: NCI-H460 lung
NCI-H522 lung = test system: NCI-H522 lung
NCI/ADR-RES ovarian = test system: NCI/ADR-RES ovarian
OVCAR-3 ovarian = test system: OVCAR-3 ovarian
OVCAR-4 ovarian = test system: OVCAR-4 ovarian
OVCAR-5 ovarian = test system: OVCAR-5 ovarian
OVCAR-8 ovarian = test system: OVCAR-8 ovarian
RPMI-8226 leukemia = test system: RPMI-8226 leukemia
RXF 393 renal = test system: RXF 393 renal
SF-268 CNS = test system: SF-268 CNS
SF-295 CNS = test system: SF-295 CNS
SF-539 CNS = test system: SF-539 CNS
SK-MEL-2 melanoma = test system: SK-MEL-2 melanoma
SK-MEL-28 melanoma = test system: SK-MEL-28 melanoma
SK-MEL-5 melanoma = test system: SK-MEL-5 melanoma
SK-OV-3 ovarian = test system: SK-OV-3 ovarian
SN12C renal = test system: SN12C renal
SNB-19 CNS = test system: SNB-19 CNS
SNB-75 CNS = test system: SNB-75 CNS
SR leukemia = test system: SR leukemia
SW-620 colon = test system: SW-620 colon
T-47D breast = test system: T-47D breast
TK-10 renal = test system: TK-10 renal
U251 CNS = test system: U251 CNS
UACC-257 melanoma = test system: UACC-257 melanoma
UACC-62 melanoma = test system: UACC-62 melanoma
UO-31 renal = test system: UO-31 renal

For `Fc1cc2[nH]ncc2c2c3c(c(-c4cn[nH]c4C(F)(F)F)nc12)C1CCC3C1` (centres undefined), the GI50 (786-0 renal) was 1190 nM, the TGI (786-0 renal) was 5270 nM and the GI50 (A498 renal) was 591 nM. The TGI (A498 renal) was 1250 nM, the GI50 (A549 NSCLC) was 1070 nM and the TGI (A549 NSCLC) was 4410 nM. For the same molecule, the GI50 (ACHN renal) was 532 nM, the TGI (ACHN renal) was 3200 nM and the GI50 (BT-549 breast) was 883 nM. For the same molecule, the TGI (BT-549 breast) was 2970 nM, the GI50 (CAKI-1 renal) was 602 nM and the TGI (CAKI-1 renal) was 3510 nM. For the same molecule, the GI50 (CCRF-CEM leukemia) was 1230 nM, the TGI (CCRF-CEM leukemia) was over 50000 nM and the GI50 (COLO 205 colon) was 874 nM. It also gave a TGI (COLO 205 colon) of 2240 nM, a GI50 (DU-145 prostate) of 1120 nM and a TGI (DU-145 prostate) of 7520 nM. It also gave a GI50 (EKVX NSCLC) of 1390 nM, a TGI (EKVX NSCLC) of 5910 nM and a GI50 (HCC-2998 colon) of 1380 nM. The TGI (HCC-2998 colon) was 5570 nM, the GI50 (HCT-116 colon) was 642 nM and the TGI (HCT-116 colon) was 5550 nM. It also gave a GI50 (HCT-15 colon) of 1330 nM, a TGI (HCT-15 colon) of 7280 nM and a GI50 (HL-60(TB) leukemia) of 1100 nM. For the same molecule, the TGI (HL-60(TB) leukemia) was 2600 nM, the GI50 (HOP-62 NSCLC) was 970 nM and the TGI (HOP-62 NSCLC) was 3750 nM. For the same molecule, the GI50 (HOP-92 NSCLC) was 885 nM, the TGI (HOP-92 NSCLC) was 3040 nM and the GI50 (HS 578T breast) was 808 nM. For the same molecule, the TGI (HS 578T breast) was 2670 nM, the GI50 (HT29 colon) was 1470 nM and the TGI (HT29 colon) was 10500 nM. The GI50 (IGROV1 ovarian) was 994 nM, the TGI (IGROV1 ovarian) was 3770 nM and the GI50 (K-562 leukemia) was 1610 nM. It also gave a TGI (K-562 leukemia) of over 50000 nM, a GI50 (KM12 colon) of 656 nM and a TGI (KM12 colon) of 6300 nM. For the same molecule, the GI50 (LOX IMVI melanoma) was 818 nM, the TGI (LOX IMVI melanoma) was 3330 nM and the GI50 (M14 melanoma) was 791 nM. For the same molecule, the TGI (M14 melanoma) was 3530 nM, the GI50 (MALME-3M melanoma) was 1450 nM and the TGI (MALME-3M melanoma) was 4850 nM. It also gave a GI50 (MCF7 breast) of 815 nM, a TGI (MCF7 breast) of 5570 nM and a GI50 (MDA-MB-231 breast) of 724 nM. The TGI (MDA-MB-231 breast) was 3450 nM, the GI50 (MDA-MB-435) was 1520 nM and the TGI (MDA-MB-435) was 7140 nM. It also gave a GI50 (MOLT-4 leukemia) of 990 nM, a TGI (MOLT-4 leukemia) of 4310 nM and a GI50 (NCI-H226 lung) of 926 nM. It also gave a TGI (NCI-H226 lung) of 4720 nM, a GI50 (NCI-H23 lung) of 1270 nM and a TGI (NCI-H23 lung) of 6000 nM. For the same molecule, the GI50 (NCI-H460 lung) was 1150 nM, the TGI (NCI-H460 lung) was 5500 nM and the GI50 (NCI-H522 lung) was 906 nM. For the same molecule, the TGI (NCI-H522 lung) was 3380 nM, the GI50 (NCI/ADR-RES ovarian) was 2400 nM and the TGI (NCI/ADR-RES ovarian) was 16100 nM. It also gave a GI50 (OVCAR-3 ovarian) of 1390 nM, a TGI (OVCAR-3 ovarian) of 4870 nM and a GI50 (OVCAR-4 ovarian) of 2680 nM. It also gave a TGI (OVCAR-4 ovarian) of 23400 nM, a GI50 (OVCAR-5 ovarian) of 1190 nM and a TGI (OVCAR-5 ovarian) of 3720 nM. For the same molecule, the GI50 (OVCAR-8 ovarian) was 1210 nM, the TGI (OVCAR-8 ovarian) was 6740 nM and the GI50 (RPMI-8226 leukemia) was 804 nM. It also gave a TGI (RPMI-8226 leukemia) of 3540 nM, a GI50 (RXF 393 renal) of 345 nM and a TGI (RXF 393 renal) of 1120 nM. It also gave a GI50 (SF-268 CNS) of 1160 nM, a TGI (SF-268 CNS) of 4640 nM and a GI50 (SF-295 CNS) of 1210 nM. For the same molecule, the TGI (SF-295 CNS) was 4940 nM, the GI50 (SF-539 CNS) was 820 nM and the TGI (SF-539 CNS) was 2100 nM. It also gave a GI50 (SK-MEL-2 melanoma) of 1570 nM, a TGI (SK-MEL-2 melanoma) of 4200 nM and a GI50 (SK-MEL-28 melanoma) of 889 nM. The TGI (SK-MEL-28 melanoma) was 2840 nM, the GI50 (SK-MEL-5 melanoma) was 740 nM and the TGI (SK-MEL-5 melanoma) was 1520 nM. The GI50 (SK-OV-3 ovarian) was 729 nM, the TGI (SK-OV-3 ovarian) was 2260 nM and the GI50 (SN12C renal) was 960 nM. It also gave a TGI (SN12C renal) of 5180 nM, a GI50 (SNB-19 CNS) of 1590 nM and a TGI (SNB-19 CNS) of 6570 nM. The GI50 (SNB-75 CNS) was 945 nM, the TGI (SNB-75 CNS) was 2930 nM and the GI50 (SR leukemia) was 645 nM. For the same molecule, the TGI (SR leukemia) was over 50000 nM, the GI50 (SW-620 colon) was 982 nM and the TGI (SW-620 colon) was 5130 nM. It also gave a GI50 (T-47D breast) of 850 nM, a TGI (T-47D breast) of 3790 nM and a GI50 (TK-10 renal) of 744 nM. The TGI (TK-10 renal) was 4080 nM, the GI50 (U251 CNS) was 1400 nM and the TGI (U251 CNS) was 5090 nM. It also gave a GI50 (UACC-257 melanoma) of 1310 nM, a TGI (UACC-257 melanoma) of 4510 nM and a GI50 (UACC-62 melanoma) of 878 nM. The TGI (UACC-62 melanoma) was 3390 nM, the GI50 (UO-31 renal) was 767 nM and the TGI (UO-31 renal) was 1970 nM.
